# Experimental data taken from patent US20230382863A1, “MEK INHIBITORS AND USES THEREOF” (Ikena Oncology, Inc., priority 2022, published 2023).
# Assays:
# [1] = Cassette pharmacokinetics studies in mice; type: in vivo; settings: male, Balb/c, plasma, Mouse
# Summary of the method: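 Male Balb/c mice (3 per route) received cassette doses in 5% DMSO/95% PEG400 at 2 mg/kg IV (1 mg/kg where IV*) or 5 mg/kg PO. Plasma sampled to 24 h, acetonitrile-precipitated with internal standard, quantified by HPLC/MS/MS against 0.5-1,000 ng/mL standards.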
# [2] = tested on: OCI-AML-3 xenograft (NRAS Q61L); test: In vivo efficacy, OCI-AML-3 xenograft model; parameters: species or system mouse; settings: OCI-AML-3 model, Day 15
# Description: The antitumor activity of exemplary MEK inhibitor compounds is evaluated in vivo using human cell line derived xenografts (CDX) grown in immunodeficient mice. For these studies, AsPC1 (pancreatic cell line with KRAS G12D mutation), NCI-H2122 (lung cell line with KRAS G12C mutation), and 5637 (bladder cell line with CRAF amplification) models are used. In addition, HCT-116 (colorectal cell line with KRAS G13D mutation), SKM-1 (AML cell line with KRAS K117N mutation), and OCI-AML-3 (AML cell line with NRAS Q61L mutation) models are used. The tumor cell lines (AsPC-1, NCI-H2122, 5637, and HCT-116 cells) are maintained in vitro as monolayer culture in medium at 37° C. in an atmosphere of 5% CO2 in air. The tumor cell lines (SKM-1 and OCI-AML-3 cells) are maintained in vitro as a suspension in medium at 37° C. in an atmosphere of 5% CO2 in air. The tumor cells are routinely sub-cultured before confluence by trypsin-EDTA treatment, not to exceed 4-5 passages. The cells growing in an exponential growth phase are harvested for tumor inoculation. AsPC1, NCI-H2122, and OCI-AML-3 tumors are implanted into Balb/c nude mice. HCT-116 tumors are implanted into Nu/Nu mice. 5637 and SKM-1 tumors are implanted into NOG mice. Each mouse is inoculated subcutaneously on the right flank with tumor cells in a 1:1 mixture with matrigel. Tumors are allowed to grow to approximately 150-200 mm^3. At this time, mice are assigned to groups such that the mean tumor volume is the same for each treatment group. The MEK inhibitor compound treatments are administrated to the tumor-bearing mice via oral gavage. Throughout the study, mouse body weight and tumor volume are recorded. The measurement of tumor size is conducted twice weekly with a caliper and recorded. The tumor volume (mm^3) is estimated using the formula: TV=a×b^2/2, where “a” and “b” are long and short diameters of a tumor, respectively.
# ARAF in complex with MEK = test: ARAF-MEK stabilization in cells (MEK immunoprecipitation, Western); type: cell-based; settings: HCT-116 and NCI-H1755 cells, 3 nM, 4 hours; stabilization = >1.5-fold over vehicle
# Description: The stabilization of ARAF, BRAF and CRAF in complex with MEK in MEK immunoprecipitates isolated from cellular lysates. For these studies, HCT-116 (colorectal cell line with KRAS G13D mutation), SKMEL-2 (melanoma cell line with NRAS Q61K mutation), HT-29 (colorectal cell line with BRAF Class I mutation), NCI-H1755 (lung cancer cell line with BRAF Class II mutation), and NCI-H1666 (lung cancer cell line with BRAF Class III mutation) models are used. The tumor cell lines are maintained in vitro as monolayer culture in medium at 37° C. in an atmosphere of 5% CO2 in air. Cell lines are treated with exemplary MEK inhibitors at a concentration of 3 nM for 4 hours. Cells are lysed and MEK is immunoprecipitated from the lysates overnight. Denatured immunoprecipitates are run on SDS-PAGE, transferred to nitrocellulose membranes and associated ARAF, BRAF, or CRAF are detected by Western analysis. Stabilization was defined as >1.5-fold induction of RAF-MEK interaction over vehicle control.
compound,measurement,setting,value
"CNS(=O)(=O)Nc1cccc(Oc2c(C(=O)NC3CC3)c(Nc3ccc(I)cc3F)n(C)c(=O)c2C)c1Cl [Compound I-2, 4-(2-chloro-3-((N-methylsulfamoyl)amino)phenoxy)-N-cyclopropyl-2-((2-fluoro-4-iodophenyl)amino)-1,5-dimethyl-6-oxo-1,6-dihydropyridine-3-carboxamide]",AUC(0-inf),"[1]; IV, 2 mg/kg",1950 ng·h/mL
same,AUC(0-t),"[1]; IV, 2 mg/kg",1940 ng·h/mL
same,clearance,"[1]; IV, 2 mg/kg",17.2 mL/min/kg
same,half-life,"[1]; IV, 2 mg/kg",1.04 h
same,Vd,"[1]; IV, 2 mg/kg, read-out: Vdss",1.3 L/kg
same,AUC(0-inf),"[1]; PO, 5 mg/kg",4040 ng·h/mL
same,AUC(0-t),"[1]; PO, 5 mg/kg",3960 ng·h/mL
same,Cmax,"[1]; PO, 5 mg/kg",1660 ng/mL
same,Tmax,"[1]; PO, 5 mg/kg",0.5 h
same,half-life,"[1]; PO, 5 mg/kg",7.99 h
same,average body weight loss,[2]; 1 mg/kg QD,2.9%
same,percent TGI,[2]; 1 mg/kg QD,94.8%
same,average body weight loss,[2]; 3 mg/kg QD,7.8%
same,percent TGI,[2]; 3 mg/kg QD,98.6%
same,percent TGI,[2]; 6 mg/kg QOD,95.2%
same,weight gain,[2]; 6 mg/kg QOD,3.3%
same,association of ARAF with MEK,ARAF in complex with MEK,enhanced
